Data published in PubChem BioAssay AID1996.
Values after ≈ are worked out from the molar mass of the structure shown.

conditions: buffer; pH 7.4; 200.0 µM

SMILES	solubility kinetic [µg/mL]
COc1ccccc1CNC(=O)c1ccncc1	> 36.3
CCCC(=O)Nc1nnc(-c2ccc3c(c2)OCCO3)o1	> 43.4
CN(CC(=O)O)S(=O)(=O)c1ccc2c(c1)NC(=O)CC(=O)N2	> 49.1
Oc1cc2c(cc1CN1CCN(c3ncccn3)CC1)OCO2	17.2 (≈ 54.7 µM)
Cc1noc(C)c1S(=O)(=O)N1CCC(C(=O)c2ccccc2)CC1	30 (≈ 86.1 µM)
O=C(Nc1ccc(Cl)cn1)c1ccc2nccnc2c1	3.6 (≈ 12.6 µM)
O=C(O)c1ccc(S(=O)(=O)Nc2ccc3c(c2)OCCO3)cc1	41.5 (≈ 124 µM)
CN(CC(=O)N1CCCC1)S(=O)(=O)c1ccc2ccccc2c1	> 49.9
Cc1ccc2nc(SCC(=O)Nc3ccc(C(N)=O)cc3)[nH]c2c1	9.9 (≈ 29.1 µM)
O=C(NCc1cccnc1)C(=O)NCC(c1ccco1)N1CCOCC1 (centres undefined)	> 53.8
CN(C(=O)c1cccc(NC(=O)c2ccco2)c1)c1ccccc1	> 48.1
O=C(Nc1ccc(F)cc1)c1cccnc1Oc1ccccc1	4.3 (≈ 13.9 µM)
CCN1CCN(C(=O)c2cc(=O)c3cc(C)ccc3o2)CC1	> 45.1
Cc1cccc(NC(=S)N2CCCC2)c1	> 33
CCOC(=O)/C(=C/Nc1ccc(F)cc1)[N+](=O)[O-]	33.9 (≈ 133 µM)
Cc1cc(NC(=O)C(Cl)(Cl)Cl)no1	35.7 (≈ 147 µM)
CNC(=O)/C(C#N)=C/c1cn(CC(=O)OC)c2ccccc12	7.8 (≈ 26.2 µM)
CCOc1ccc(OCC(=O)Nc2ccc(S(N)(=O)=O)cc2)cc1	7.1 (≈ 20.3 µM)
CC1CC(OC(=O)c2ccccc2)(c2ccccc2)C(C)CN1C (centres undefined)	> 48.5
COCCCNC(=O)C(CC(N)=O)NC(=O)OCc1ccccc1 (centres undefined)	> 50.6
O=C(NCCC1=CCCCC1)c1c(O)nc2ccccn2c1=O	8.7 (≈ 27.8 µM)
COc1ccc(NC(=O)c2cc(-c3ccncc3)nc3ccccc23)c(OC)c1	4.2 (≈ 10.9 µM)
CCOc1ccc(CC(=O)NCCc2cnc[nH]2)cc1	> 41
O=C(c1cc2cc(Br)ccc2[nH]1)N1CCc2ccccc21	< 0.4

SMILES	solubility kinetic [µg/mL]
CCOC(=O)c1[nH]cnc1C(=O)Nc1ccc(Cl)cc1	2.2 (≈ 7.49 µM)
CCS(=O)(=O)N1CCC(C(=O)O)CC1	> 33.2
Cc1cc(C)c2c(N)c(C(=O)c3ccccc3)sc2n1	< 0.3
CN(Cc1nc2ccccc2c(=O)[nH]1)C(=O)C1CC(=O)N(c2cccc3ccccc23)C1 (centres undefined)	> 64
CC(=O)Nc1nc2ccccc2n1Cc1ccccc1Cl	5.2 (≈ 17.3 µM)
Nc1nc2nonc2nc1N	> 22.8
CN(C)CCCNC(=S)Nc1ccc(Oc2ccccc2)cc1	43.1 (≈ 131 µM)
CC(C)Cc1ccc(C(C)NC(=O)c2ccc(=O)[nH]c2)cc1 (centres undefined)	10 (≈ 33.5 µM)
Cc1ccc(SCC(=O)O/N=C(\N)c2ccncc2)cc1	29.4 (≈ 97.6 µM)
O=C1CCc2ccc(NC(=O)C3CC3)cc2N1	> 34.5
NC(=O)NC(CC(=O)NCCc1ccccn1)c1ccccc1Cl (centres undefined)	> 52
CC(C)C(=O)N1CCN(c2ccccc2NC(=S)NC(=O)/C=C/c2ccco2)CC1	1.6 (≈ 3.75 µM)
COCCCNC(=S)Nc1c(C)cc(C)cc1C	37.2 (≈ 140 µM)
Cc1c(Cl)cccc1NC(=O)CCN1CCC(C(N)=O)CC1	> 48.6
CCOc1ccccc1NC(=O)c1cc2ccccc2oc1=O	< 0.7
CC1CCN(C(=O)CSc2nnc(N)s2)CC1	> 40.9
NC(Cc1c[nH]c2ccccc12)C(=O)NCc1ccccc1 (centres undefined)	39.1 (≈ 133 µM)
O=C1NC2(CCCCCC2)C(=O)N1Cc1ccccc1	> 40.9
CC(OC(=O)c1cccc([N+](=O)[O-])c1)C(=O)N1CCc2ccccc21 (centres undefined)	3.7 (≈ 10.9 µM)
Cc1cccc2sc(NC(=O)C3CC3)nc12	1.4 (≈ 6.03 µM)
O=C(Cc1ccc([N+](=O)[O-])cc1)Nc1ccc(Br)cn1	2.4 (≈ 7.14 µM)
Cc1csc2c(N3CCN(C(=O)NC(C)(C)C)CC3)ncnc12	> 50
c1ccc(-c2ccc(-c3ccccn3)s2)nc1	4.2 (≈ 17.6 µM)
CC(NC(=O)/C(=C\c1ccco1)NC(=O)c1ccco1)C(=O)O (centres undefined)	46.5 (≈ 146 µM)

SMILES	solubility kinetic [µg/mL]
CC(=Nc1ccc(F)cc1)c1c(O)n(C)c(=O)[nH]c1=O	7 (≈ 25.2 µM)
Cc1cccc(C)c1NC(=S)NCCSc1ccc(Cl)cc1	3.3 (≈ 9.4 µM)
O=C(O)c1ccc(-c2nnc(-c3ccccc3)o2)cc1	> 39.9
CCC(C)NC(=O)c1ccc(CSCc2ccccc2Cl)o1 (centres undefined)	30.7 (≈ 90.9 µM)
O=C(c1ccc([N+](=O)[O-])cc1)N1CCN(c2cccc3[nH]ccc23)CC1	50.7 (≈ 145 µM)
Cc1onc(-c2c(Cl)cccc2Cl)c1NC(=O)NC1CCSC1 (centres undefined)	> 55.8
CN(C)S(=O)(=O)c1ccc(C(=O)OCCc2ccccc2)cc1	0.9 (≈ 2.7 µM)
Nn1cnnc1SCC(=O)Nc1ccc2c(c1)OCO2	> 44
COc1ccccc1-c1noc(CCCC(=O)NC2CCCCC2)n1	48.5 (≈ 141 µM)
COc1ccccc1OCc1nc2ccccc2n1C	37.5 (≈ 140 µM)
Cc1ccc2cc(NC(=O)c3ccccc3)ccc2n1	> 39.3
CCN1C(=O)NC(c2ccccc2)(c2ccccc2)C1=O	< 0.3
NC(=S)Nc1ccccc1Br	> 34.7
Cc1nc(N)[nH]c(=O)c1CC(=O)OCCCl	30.4 (≈ 124 µM)
Nc1cc2c(cc1[N+](=O)[O-])OCCOCCOCCO2	> 42.6
COc1ccccc1NC(=O)c1ccc2c(=O)n3c(nc2c1)CCC3	13.2 (≈ 39.4 µM)
Cc1ccccc1NCc1nc2ccccc2n1C	5 (≈ 19.9 µM)
CS(=O)(=O)N(CC(=O)NC1CCCCC1)c1cccc(F)c1	48.1 (≈ 146 µM)
CCN(CC)c1ccc(S(=O)(=O)N2CCOCC2)cc1NC(=O)Nc1ccccc1	2.2 (≈ 5.09 µM)
Cc1nc2ccccc2cc1C(=O)N(C)Cc1ccccc1	43 (≈ 148 µM)
CC1(C)CC(NS(=O)(=O)c2ccc(F)cc2)CC(C)(C)N1	47.1 (≈ 150 µM)
COc1ccc(C2(C)NC(=O)N(CC(=O)N(c3ccccc3)C3CCS(=O)(=O)C3)C2=O)cc1 (centres undefined)	52.8 (≈ 112 µM)
COc1cccc(-c2c(C#N)c(N)nc3c2c(=O)nc2sccn23)c1	23 (≈ 65.8 µM)
O=C(Nc1ncc([N+](=O)[O-])s1)c1ccc2c(c1)OCO2	24.9 (≈ 84.9 µM)

SMILES	solubility kinetic [µg/mL]
CC1(C2CC2)NC(=O)N(CC(=O)Nc2ccc(SC(F)F)cc2)C1=O (centres undefined)	> 55.4
CC(=O)C1=C(O)C(=O)N(c2ccccn2)C1c1ccccc1[N+](=O)[O-] (centres undefined)	> 50.9
O=C(NCC(c1ccco1)N1CCOCC1)c1c(F)cccc1F (centres undefined)	> 50.5
O=C(Nc1ccc(Oc2ccccc2)cc1)N[C@@H](Cc1ccccc1)C(=O)O	> 56.5
COc1ccc(C)cc1Nc1nc(N)c2ccccc2n1.Cl	47.1
COC(=O)C1CN(C(=O)COc2cc(C)cc(C)c2)c2ccccc2O1 (centres undefined)	3.7 (≈ 10.4 µM)
CC1CC(C)CN(C(=O)CSCC(=O)O)C1 (centres undefined)	> 36.8
Cc1ccc(-n2cnc(N)c2C(=O)c2cccc([N+](=O)[O-])c2)cc1	16.6 (≈ 51.5 µM)
O=C(CN1C(=O)C2C3C=CC(C3)C2C1=O)OCC(=O)c1ccc(Cl)cc1 (centres undefined)	> 56.1
CCOC(=O)CNC(=O)CSc1nc(-c2ccc(C)cc2)ns1	11.1 (≈ 31.6 µM)
CCCCn1cnc2c(oc3ccccc32)c1=O	> 36.3
COc1ccc(C(=O)NCC(=O)OCC(=O)N2CC(C)OC(C)C2)cc1OC (centres undefined)	> 59.2
COc1ccc(CNC(=O)CC2(CC(=O)O)CCCCC2)cc1	> 47.9
CSc1ccc(CN(C)C(C)C(=O)NCC2CCCCC2)cc1 (centres undefined)	28.3 (≈ 84.6 µM)
Cc1ccc(S(=O)(=O)/N=C(\N)c2ccc(Cl)cc2)cc1	> 46.3
CCOC(=O)CCCNC(=O)COC(=O)c1cccc(F)c1	44.4 (≈ 143 µM)
Cc1ccn2cc(CCNC(=O)COc3ccccc3)nc2c1	40.6 (≈ 131 µM)
COc1ccc(C(=O)OCC(=O)Nc2c(C)n(C)n(-c3ccccc3)c2=O)cc1	> 59.3
Fc1ccc(N=c2ssnc2Cl)c(F)c1	7.5 (≈ 28.3 µM)
CCn1c(SCc2ccc(F)cc2)nc2ccccc2c1=O	0.5 (≈ 1.59 µM)
O=C(CSc1nc2cc(Cl)ccc2s1)NCC1CCCO1 (centres undefined)	> 51.4
COc1cccc(NS(=O)(=O)c2ccc3c(c2)CC(=O)N3)c1	> 47.8
O=C(C1CC1)N1CCN(Cc2ccccc2)CC1	33.5 (≈ 137 µM)
CC(=O)O/C(=C\c1cn(C(C)=O)c2ccccc12)C(=O)O	> 43.1

SMILES	solubility kinetic [µg/mL]
O=C(C#Cc1ccccc1)Nc1cccc(F)c1	8.7 (≈ 36.4 µM)
O=c1oc2ccccc2c(NCc2ccc(Cl)cc2)c1[N+](=O)[O-]	1.4 (≈ 4.23 µM)
Cn1c(=O)c2c(nc(N3CCOCC3)n2C/C=C/c2ccccc2)n(C)c1=O	51.9 (≈ 136 µM)
COc1ccc(CNC(=O)Nc2cc(C)cc(C)c2)cc1	0.8 (≈ 2.81 µM)
COC(=O)c1ccc(N2CCN(c3ccccc3)CC2)nc1	1.7 (≈ 5.72 µM)
O=S(=O)(c1ccc(-c2cc(C(F)(F)F)on2)s1)N1CCCC1	1 (≈ 2.84 µM)
Cc1ccc(S(=O)(=O)NC(C)C(=O)Nc2cccc([N+](=O)[O-])c2)cc1 (centres undefined)	8.9 (≈ 24.5 µM)
CCC(=NCc1ccco1)c1c(O)n(-c2ccccc2C)c(=O)[nH]c1=O	> 53
CN1C(=O)c2cccc3c(N(C)C)ccc(c23)C1=O	5.9 (≈ 23.2 µM)
O=S(=O)(NC1=NCCCCC1)c1ccc(F)cc1F	> 43.2
COC(=O)CN(C#N)c1nc(N(C)C)nc(N(C)C)n1	31.2 (≈ 112 µM)
CNC(=O)c1cc2cc(Br)ccc2s1	8.1 (≈ 30 µM)
O=c1c2ccccc2nc(Cc2cccc([N+](=O)[O-])c2)n1-c1ccc(O)cc1	47.8 (≈ 128 µM)
CCOC(=O)c1cn2c(C)cccc2n1	> 30.6
CC1CCN(C(=O)CNC(=O)Cc2ccccc2)CC1	40.9 (≈ 149 µM)
COC(=O)c1ccc(C(=O)OC)c(NC(=O)C2CCCO2)c1 (centres undefined)	45.3 (≈ 147 µM)
O=C(Nc1ccc(Nc2ccccc2)cc1)c1ccccc1	1.6 (≈ 5.55 µM)
COc1cccc(C(=O)NOCc2ccccc2)c1OC	> 43.1
O=C1CCCN1CN(C(=O)c1ccccc1)c1ccccc1	> 44.2
CN1CCN(CC(=O)Nc2c(C(=O)c3ccccc3)oc3ccccc23)CC1	48.4 (≈ 128 µM)
COC(=O)c1c(C)oc(C)c1S(=O)(=O)Nc1ccc(C(C)C)cc1	7.2 (≈ 20.5 µM)
O=C(O)c1ccc(NCc2nc3ccccc3n2Cc2ccccc2)cc1	> 53.6
CCCCc1nc2cc(Cl)ccc2o1	< 0.4
